Assay results from the METLIN SMRT retention time set (Domingo-Almenara et al. 2019).

Experiment: gradient 5% acetonitrile 3 min, to 50% in 2 min, to 85% in 15 min, held 3 min, 100 µL/min
Details: column: Zorbax Extend-C18 2.1 x 50 mm; eluents: water / acetonitrile, 0.1% formic acid
Procedure, shortened: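 Retention time was recorded from adduct peaks, which were picked computationally and each inspected manually. Pure standards ran in mixtures of ~100 molecules on HPLC coupled to a quadrupole time-of-flight mass spectrometer, in positive and negative ionization mode, through a Zorbax Extend-C18 column (2.1 × 50 mm, 1.8 μm) at 100 μL/min. Eluents were water and acetonitrile, each with 0.1% formic acid.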

| RP-LC retention time [s] | Compound |
| --- | --- |
| 708 | O=C(Cc1cccc2ccccc12)Nc1c(-c2ccccc2)nc2ccccn12 |
| 845 | O=C(COc1ccc2c(-c3ccccc3)cc(=O)oc2c1)N1CCC2(O)CCCCC2C1 (stereo not given) |
| 547 | CC(=O)Nc1ccc(S(=O)(=O)NCC2CCN(Cc3cccs3)CC2)c(C)c1 |
| 758 | O=C(NC(c1ccccc1)c1nnc(N2CCOCC2)o1)c1cccc(F)c1 (stereo not given) |
| 649 | COc1ccc2[nH]c(=O)c(CCC(=O)NCCCOC(C)C)cc2c1 |
| 669 | Cc1ccnc(N2CCC(C(=O)NC3CCCCC3)CC2)n1 |
| 692 | CC1(C)CN(C(=O)C2CC2)c2ccc(S(=O)(=O)N3CCN(c4ccccn4)CC3)cc21 |
| 1020 | O=C(Nc1cccc(Cl)c1)C(=O)c1cn(CC(=O)N2CCCC2)c2ccccc12 |
| 736 | COc1ccccc1-c1nc(Cn2cccc(S(=O)(=O)N3CCCC3)c2=O)no1 |
| 580 | Cc1ccc2c(Nc3ccc(CC(=O)O)cc3)c(C(=O)N3CCCCC3C)cnc2n1 (stereo not given) |
